{"source": "patent US20220039390A1", "about": "“USE OF […] FOR C[…] VEGETATION IN BETA VULGARIS GROWING AREAS” (KWS SAAT SE & Co. KGaA, priority 2018, published 2022)", "key": {"[1]": {"settings": "acid form, 25° C.; cited from earlier work"}, "[2]": {"test_system": "sugar beet (Beta vulgaris)", "assay": "Glyphosate selection of mutagenized (EMS/ENU) M2 sugar beet plants, field spray then greenhouse treatment", "format": "in vivo", "settings": "600 g/ha glyphosate acid equivalent", "from_the_text": "6 kg seeds of sugar beet elite line T807 (3BT1760, MO population) were mutagenized with 0.5% EMS and 0.3% and 0.5%, respectively ENU, and subsequently drilled for steck production. Stecks were replanted for seed production occupying an area of 5.8 ha. M1 population sizes were 75,000 seed producing plants for EMS and 19,000 plants for ENU mutagenized seeds. The following M2 seed amounts (values given for purified seed) has been obtained: 240 kg for 0.5% EMS (idents A and B), 548 kg for 0.3% ENU (idents C and D), and 256 kg 0.5% ENU (idents E and F).\n176 kg of idents A and B and 75 kg of idents C, D, E and F were sown on an approximately 15 ha spanning field site. Approximately 1 month after sowing, the entire field was sprayed with 0.88 I/ha ROUNDUP® MAX (680 g/kg glyphosate acid equivalent). Approximately 6 weeks later, plants surviving the glyphosate treatment were collected in the field, transplanted to pots and further cultivated in the greenhouses. Surviving plants were treated with 600 g/ha glyphosate acid equivalent about 2 months later. 172 plants survived that treatment in a very healthy stage without any signs of herbicide damage.\nIn order to identify the causative mutation behind the observed herbicide resistance sequencing analyses have been performed. […]"}}, "data": [{"smiles": "O=C(O)CNCP(=O)(O)O", "note": "[glyphosate, N-phosphonomethylglycine]", "values": [{"measurement": "solubility in water", "setting": "[1]", "result": 1.16, "unit": "% by weight"}, {"measurement": "resistance conferred by heterozygous P179S mutation in BvEPSPS", "setting": "[2]; approx. 50% of standard field treatment level, based on screening and selection", "result": "complete resistance"}, {"measurement": "plants that survived treatment in a very healthy stage without any signs of herbicide damage", "setting": "[2]; potted greenhouse plants that had survived the ROUNDUP MAX field spray", "result": 172, "unit": "plants"}]}]}
